# Active and inactive are the calls of the source. The rule behind the calls is not given here.
# What was measured:
# [1] = test system: 4T1; test: Induction of ROS production in mouse 4T1 cells by confocal scanning microscopy based analysis; type: functional, cell-based
# [2] = test system: 4T1; test: Induction of apoptosis in mouse 4T1 cells assessed as activation of caspase 9 at 2 uM incubated for 12 to 18 hrs; type: functional, cell-based; details: time 12-18 hrs
# [3] = Selectivity ratio of IC50 mouse 4T1 cells to IC50 for African green monkey COS7 cells
# [4] = test system: 4T1; test: Induction of mitochondrial membrane potential depolarization in mouse 4T1 cells at high dose measured after 12 hrs by JC-1 staining based analysis; type: functional, cell-based
# [5] = Antiproliferative activity against rat PBMC cells assessed as inhibition of cell growth at 5 uM incubated for 24 hrs by MTT assay; type: toxicity, cell-based
# [6] = test system: 4T1; test: Induction of apoptosis in mouse 4T1 cells assessed as activation of caspase 3 at 2 uM incubated for 12 to 18 hrs; type: functional, cell-based; details: time 12-18 hrs
# [7] = Toxicity in BALB/c mouse assessed as effect on UA level at 0.15 to 1.5 mg/kg measured upto 16 days; type: organism-based; details: in vivo, 384 h, dose 0.15-1.5 mg/kg, time < 16 day
# [8] = Toxicity in BALB/c mouse assessed as effect on ALP level at 0.15 to 1.5 mg/kg measured upto 16 days; type: organism-based; details: in vivo, 384 h, dose 0.15-1.5 mg/kg, time < 16 day
# [9] = test system: 4T1; test: Induction of mitochondrial respiration in mouse 4T1 cells assessed as increase in basal respiration at 2 to 6 uM incubated for 6 hrs by seahorse XF96 flux analyzer; type: functional, cell-based; details: dose 2-6 µM
# [10] = test system: 4T1; test: Induction of mitochondrial membrane potential depolarization in mouse 4T1 cells at low dose measured after 12 hrs by JC-1 staining based analysis; type: functional, cell-based
# [11] = test system: 4T1; test: Antiproliferative activity against PDK knockdown mouse 4T1 cells assessed as reduction in apoptotic percentage at 2 uM incubated for 24 hrs by flow cytometry analysis (reference value: 61.6%); type: functional; design: scale not given: the % may be the effect or the level left
# [12] = test system: 4T1; test: Induction of apoptosis in mouse 4T1 cells assessed as increase in proportion of apoptotic cells incubated for 24 hrs by annexin V-FITC/PI staining based flow cytometry analysis; type: functional, cell-based; details: dose 2-3 µM
# [13] = Antiproliferative activity against African green monkey COS7 cells assessed as inhibition of cell growth incubated for 24 hrs by MTT assay; type: toxicity, cell-based, Chlorocebus aethiops, COS-7; details: African green monkey (Chlorocebus aethiops), COS-7 cells
# [14] = test system: MCF7; test: Antiproliferative activity against human MCF7 cells assessed as inhibition of cell growth incubated for 24 hrs by MTT assay; type: functional, cell-based; details: MCF7, 24 h
# [15] = test system: HeLa; test: Antiproliferative activity against human HeLa cells assessed as inhibition of cell growth incubated for 24 hrs by MTT assay; type: functional, cell-based
# [16] = biological target: [Pyruvate dehydrogenase (acetyl-transferring)] kinase isozyme 4, mitochondrial (Mus musculus) (UniProt O70571); test: Inhibition of PDK4 transcription in mouse 4T1 cells at 4 uM incubated for 24 hrs by qPCR analysis; type: cell-based
# [Pyruvate dehydrogenase (acetyl-transferring)] kinase isozyme 4, mitochondrial (Mus musculus), sequence (O70571 whole entry): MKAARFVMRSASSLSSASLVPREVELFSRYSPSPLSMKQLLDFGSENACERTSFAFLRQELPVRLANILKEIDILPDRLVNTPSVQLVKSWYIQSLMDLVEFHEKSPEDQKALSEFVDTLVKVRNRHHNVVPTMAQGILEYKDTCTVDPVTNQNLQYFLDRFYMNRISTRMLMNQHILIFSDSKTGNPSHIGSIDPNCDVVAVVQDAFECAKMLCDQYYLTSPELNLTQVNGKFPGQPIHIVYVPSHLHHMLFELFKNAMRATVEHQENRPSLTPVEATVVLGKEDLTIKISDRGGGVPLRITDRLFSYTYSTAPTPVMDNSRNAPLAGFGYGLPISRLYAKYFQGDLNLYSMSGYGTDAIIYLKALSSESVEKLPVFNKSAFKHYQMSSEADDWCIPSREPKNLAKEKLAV
# [17] = test system: 4T1; test: Inhibition of glycolysis in mouse 4T1 cell lysates assessed as reduction in extracellular acidification rate at 2 to 6 uM measured after 6 hrs; type: functional, cell-based; details: dose 2-6 µM
# [18] = test system: 4T1; test: Antitumor activity against mouse 4T1 cells xenografted in BALB/c mouse model assessed as reduction in inflammatory index in routine blood at 0.15 to 1.5 mg/kg; type: functional, organism-based; details: dose 0.15-1.5 mg/kg
# [19] = test system: 4T1; test: Downregulation of HIF-1alpha expression in mouse 4T1 cells at 4 uM incubated for 24 hrs; type: functional, cell-based
# [20] = test system: 4T1; test: Induction of apoptosis in mouse 4T1 cells assessed as activation of cytochrome C release from mitochondria to cytosol at 1 to 4 uM incubated for 12 hrs; type: functional, cell-based; details: dose 1-4 µM
# [21] = test system: 4T1; test: Induction of apoptosis in mouse 4T1 cells assessed as reduction in Bcl-2 expression at 4 uM incubated for 24 hrs; type: functional, cell-based
# [22] = test system: 4T1; test: Antitumor activity against mouse 4T1 cells xenografted in BALB/c mouse model assessed as reduction in hepatosplenomegaly by measuring organ coefficient at 0.15 to 1.5 mg/kg; type: functional, organism-based; details: dose 0.15-1.5 mg/kg
# [23] = Toxicity in BALB/c mouse assessed as effect on CREA level at 0.15 to 1.5 mg/kg measured upto 16 days; type: organism-based; details: in vivo, 384 h, dose 0.15-1.5 mg/kg, time < 16 day
# [24] = test system: 4T1; test: Induction of apoptosis in mouse 4T1 cells assessed as increase in Bax expression at 4 uM incubated for 24 hrs; type: functional, cell-based
# [25] = Toxicity in BALB/c mouse assessed as effect on UREA level at 0.15 to 1.5 mg/kg measured upto 16 days; type: organism-based; details: in vivo, 384 h, dose 0.15-1.5 mg/kg, time < 16 day
# [26] = Toxicity in BALB/c mouse assessed as effect on lung at 0.15 to 1.5 mg/kg measured upto 16 days; type: organism-based; details: in vivo, 384 h, dose 0.15-1.5 mg/kg, time < 16 day
# [27] = biological target: [Pyruvate dehydrogenase (acetyl-transferring)] kinase isozyme 2, mitochondrial (Mus musculus) (UniProt Q9JK42); test: Inhibition of PDK2 transcription in mouse 4T1 cells at 4 uM incubated for 24 hrs by qPCR analysis; type: cell-based
# [28] = test system: 4T1; test: Inhibition of glycolysis in mouse 4T1 cell lysates assessed as reduction in LDH activity at 1 to 2 uM incubated for 12 hrs; type: functional, cell-based; details: dose 1-2 µM
# [29] = test system: 4T1; test: Induction of mitochondrial respiration in mouse 4T1 cells assessed as increase in oxygen consumption rate at 2 to 6 uM incubated for 6 hrs by seahorse XF96 flux analyzer; type: functional, cell-based; details: dose 2-6 µM
# [30] = Toxicity in BALB/c mouse assessed as effect on heart at 0.15 to 1.5 mg/kg measured upto 16 days; type: organism-based; details: in vivo, 384 h, dose 0.15-1.5 mg/kg, time < 16 day
# [31] = test system: 4T1; test: Induction of mitochondrial respiration in mouse 4T1 cells assessed as increase in glucose uptake at 2 to 6 uM incubated for 18 hrs followed by 6 hrs incubation in serum free high glucose medium by glucose uptake assay; type: functional, cell-based; details: dose 2-6 µM, time 24.0 hrs
# [32] = test system: 4T1; test: Inhibition of glycolysis in mouse 4T1 cell lysates assessed as reduction in LDHA expression at 4 uM incubated for 24 hrs; type: functional, cell-based
# [33] = test system: 4T1; test: Induction of mitochondrial respiration in mouse 4T1 cells assessed as upregulation of intracellular ATP level at 2 uM incubated for 12 to 24 hrs […]; type: functional, cell-based; details: time 12-24 hrs
# [34] = test system: COS-7; test: Effect on PDHA1 expression in African monkey COS7 cells at 12 uM measured after 24 hrs; type: functional, cell-based; details: Chlorocebus aethiops
# [35] = biological target: [Pyruvate dehydrogenase (acetyl-transferring)] kinase isozyme 3, mitochondrial (Mus musculus) (UniProt Q922H2); test: Inhibition of PDK3 transcription in mouse 4T1 cells at 4 uM incubated for 24 hrs by qPCR analysis; type: cell-based
# [Pyruvate dehydrogenase (acetyl-transferring)] kinase isozyme 3, mitochondrial (Mus musculus), sequence (Q922H2 whole entry): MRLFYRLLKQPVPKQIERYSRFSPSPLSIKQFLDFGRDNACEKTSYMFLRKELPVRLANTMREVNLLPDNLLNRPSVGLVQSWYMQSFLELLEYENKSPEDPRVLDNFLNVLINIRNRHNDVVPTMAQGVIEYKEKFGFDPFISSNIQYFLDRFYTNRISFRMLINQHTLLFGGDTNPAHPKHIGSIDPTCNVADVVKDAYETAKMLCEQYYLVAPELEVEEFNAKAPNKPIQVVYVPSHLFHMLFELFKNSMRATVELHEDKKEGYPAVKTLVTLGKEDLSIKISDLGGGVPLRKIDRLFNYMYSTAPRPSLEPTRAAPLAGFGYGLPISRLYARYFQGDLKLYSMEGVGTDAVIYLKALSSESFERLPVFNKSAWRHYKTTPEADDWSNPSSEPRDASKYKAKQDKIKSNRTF
# [36] = test system: 4T1; test: Downregulation of PHDC at Ser293 residues in mouse 4T1 cells at 4 uM incubated for 24 hrs by Western blot analysis; type: functional, cell-based
# [37] = Toxicity in BALB/c mouse assessed as effect on AST level at 0.15 to 1.5 mg/kg measured upto 16 days; type: organism-based; details: in vivo, 384 h, dose 0.15-1.5 mg/kg, time < 16 day
# [38] = test system: 4T1; test: Inhibition of PDK4 expression in mouse 4T1 cells at 4 uM incubated for 24 hrs by Western blot analysis; type: functional, cell-based
# [39] = Toxicity in BALB/c mouse assessed as effect on body weight at 0.15 to 1.5 mg/kg measured upto 16 days; type: organism-based; details: in vivo, 384 h, dose 0.15-1.5 mg/kg, time < 16 day
# [40] = test system: 4T1; test: Upregulation of p53 level in mouse 4T1 cells at 4 uM incubated for 24 hrs; type: functional, cell-based
# [41] = Toxicity in BALB/c mouse assessed as effect on spleen at 0.15 to 1.5 mg/kg measured upto 16 days; type: organism-based; details: in vivo, 384 h, dose 0.15-1.5 mg/kg, time < 16 day
structure (smiles),measurement,setting,value
O=C(CCCCCNC(=O)C(Cl)Cl)Nc1ccc([As]2SCCCS2)cc1,Activity,[1],Active
same,Activity,[2],Active
same,Ratio IC50,[3],6
same,Activity,[4],Active
same,Activity,[5],Non-Toxic
same,Activity,[6],Active
same,Activity,[7],Non-Toxic
same,Activity,[8],Non-Toxic
same,Activity,[9],Active
same,Activity,[10],inactive
same,Activity,[11],16.1%
same,Activity,[12],Dose-Dependent Effect
same,IC50 at 24 h,[13],11200 nM
same,IC50,[14],2500 nM
same,IC50,[15],2500 nM
same,inhibition,[16],Active
same,inhibition,[17],Active
same,Activity,[18],Active
same,Activity,[19],Active
same,Activity,[20],Active
same,Activity,[21],Active
same,Activity,[22],Active
same,Activity,[23],Non-Toxic
same,Activity,[24],Active
same,Activity,[25],Non-Toxic
same,Activity,[26],Non-Toxic
same,inhibition,[27],Active
same,inhibition,[28],Active
same,Activity,[29],Active
same,Activity,[30],Non-Toxic
same,Activity,[31],Active
same,inhibition,[32],Active
same,Activity,[33],Active
same,Activity,[34],inactive
same,inhibition,[35],Active
same,Activity,[36],Active
same,Activity,[37],Non-Toxic
same,inhibition,[38],Active
same,Activity,[39],Non-Toxic
same,Activity,[40],Active
same,Activity,[41],Non-Toxic
